Source: patent US11000535B2, “Anticancer composition and use thereof” (KAOHSIUNG MEDICAL UNIVERSITY, priority 2015, dated 2021)
Converted amounts (≈) assume the structure as drawn.

Assays:
Huh7 cells [1] = assay: Apoptosis in Huh7 cells (Annexin V flow cytometry, cleaved caspase 3 immunoblot); type: cell-based, human
Method: Please refer to FIG. 22, which illustrates sub-G1 of cells in population. And flow cytometry analysis is done after 24 hours of PGG (0.1 mg/mL) treatment as illustrated in FIG. 22.
Please refer to FIG. 23, which illustrates fluorescence intensity in Annexin-V-positive cells among Huh7 cells.
In summary, administration of PGG to Huh7 cells can induce apoptosis.
Cells were harvested and fixed with cold 75% ethanol overnight and stained with propidium iodide (10 ug/mL) and RNase A (1 mg/mL) at 37 □ for 30 min. The cells were then analyzed by an Accuri C6 Flow cytometer (BD Biosciences, San Jose, Calif., USA). Cells were stained for Annexin V—APC Apoptosis Detection Kit according to the manufacturer's protocol (eBioscience, San Diego, Calif., USA).

c-Myc = c-Myc expression in xenograft tumors; type: in vivo, mice; settings: FIG. 34 c-Myc/actin (PGG); FIG. 35 mRNA (F3-6 25 and 300 mpk)
Method: Please refer to FIGS. 34-35. FIG. 34 illustrates c-Myc/actin expression ratio in the tumor after treatments, wherein the numeral 1 is for the solvent, and the numeral 2 is for PGG. FIG. 35 illustrates c-Myc in RNA expression in the tumor after treatments, wherein the numeral 1 is for the solvent, the numeral 2 is for F3-6 (25 mpk), and the numeral 3 is for F3-6 (300 mpk).
RNA was prepared by using Tri Reagent (Sigma-Aldrich, St Louis, Mo., USA) and was reverse transcribed into cDNA using a Super Script II Reverse Transcriptase Kit (Invitrogen Inc., Carlsbad, Calif., USA).
PCR was performed on an ABI StepOne Plus System (Applied Biosystems, Foster City, Calif., USA) using the LightCycler® First Start DNA Master SYBR Green I reagent (Roche Diagnostics, Basel, Switzerland). The mRNA level was normalized using the TATA-box binding protein (TBP) mRNA level as the standard.
The following primers were used: GNMT forward, 5′-ACTGGATGACT CTGGACAA-3′ (SEQ ID NO. 3) and reverse, 5′-ACTGAGGATGTGGTCGT-3′(SEQ ID NO. 4); TBP forward, 5′-[…]-3′ (SEQ ID NO. 5) and reverse, 5′-[…]-3′(SEQ ID NO. 6); c-Myc forward, […](SEQ ID NO. 7) and reverse, […](SEQ ID NO. 8). […]

caspase 3/7 = assay: Caspase 3/7 activity assay; type: cell-based, human; settings: Huh7 cells, 12 hours
Method: Please refer to FIG. 24, which illustrates PGG induced caspase 3/7 activity in Huh7 cells.
Huh7 cells were plated in 96-well plate and treated with solvent or PGG for 12 h. To measure caspase-3 and caspase-7 activation, the Apo-ONE® Homogeneous Caspase-3/7 assay was performed according to the Promega Technical Bulletin-Apo-ONE® Homogeneous Caspase-3/7 assay.

Huh7 cells [2] = assay: alamarBlue cell viability / proliferation, Huh7; type: cell-based, human
Source text: Next, we analyzed the effect of PGG on cell proliferation in different liver cancer cell lines, including Huh7, Hep3B (ATCC-No 8064), HepG2 (ATCC HB-8065), SK-HEP-1 (ATCC HTB-52), Mahlavu and HepG2 (ATCC HB-8065).
Please refer to FIG. 18, which illustrates the effect of PGG on cell proliferation in different liver cancer cell lines, wherein the numeral 1 denotes Huh7 cells, the numeral 2 denotes Hep3B cells, the numeral 3 denotes SK-HEP-1 cells, the numeral 4 denotes Mahlavu cells, and the numeral 5 denotes HepG2 cells. And cell viability was determined by the alamarBlue® viability assay. IC50 values of PGG in each cell line are shown as follows: Huh7 cells 0.03 mg/mL, Hep3B cells 0.07 mg/mL, SK-HEP-1 cells, Mahlavu cells and HepG2 0.10 mg/mL dose-dependent.
Human liver cancer cell lines Huh7, Hep G2, Hep 3B, SK-HEP-1, Mahlavu and embryonic kidney cell line HEK-293T all were cultured in Dulbecco's Modified Eagle's Medium (DMEM) (Gibco BRL, Grand Island, N.Y., USA) with 10% heat-inactivated fetal bovine serum (HyClone, Logan, Utah, USA), penicillin (100 U/mL), streptomycin ([…]), nonessential amino acids (0.1 mM/L) and L-glutamine (2 mM/L) in a humidified incubator with 5% CO2.

[3] = test system: Huh7 cells (shLacZ, shGNMT, shMyc, c-Myc overexpression); assay: PGG cytotoxicity in Huh7 cells with GNMT or c-Myc knock-out or c-Myc overexpression; type: cell-based, human
Method: As to the mechanism for how to suppress the growth of liver cancer cells by PGG, it was deduced that by virtue of induced GNMT expression by PGG it could interfere liver cancer cells. And it can be expected to have the claimed therapeutic effect of PGG by knocking out GNMT. With transformed Huh7 cells, shRNAs which have stable expressions of GNMT are evaluated.
Please refer to FIG. 40, which illustrates PGG affects the viability in different cell lines, wherein the numeral 1 denotes shLacZ, the numeral 2 denotes shGNMT-1, and the numeral 3 denotes shGNMT-2.
Please refer to FIG. 41, which illustrates the viability in Huh7 cells, wherein the numeral 1 denotes vehicle, the numeral 2 denotes c-Myc, the numeral 3 denotes solvent, and the numeral 4 denotes PGG.
Please refer to FIG. 44, which illustrates the viability in Huh7 cells, wherein the numeral 1 denotes shLacZ, and the numeral 2 denotes shMyc.
Stablized cells comprises Huh7-GFP, Huh7-GNMT, Huh7-shGNMT, Huh7-shLacZ and Huh7-shMyc, which are established via the lentivirus system and cultured in Dulbecco's Modified Eagle's Medium (DMEM) (Gibco BRL, Grand Island, N.Y., USA) with 1 μg/ml puromycin.

c-Myc protein = c-Myc protein expression by immunoblotting, PC-3; type: cell-based, human; settings: PC-3 cells, 0.1 mg/mL
Method: Human prostate cancer cell line PC-3 and human promyelocytic leukemia cell line HL-60 were cultured in Gibco BRL company RPMI (Roswell Park Memorial Institute) 1640's medium.
Cells or xenograft tumors were harvested with RIPA lysis buffer (50 mM Tris (pH 7.5), 150 mM NaCl, 1% Triton X-100, 0.1% sodium dodecyl sulfate (SDS), 0.5% sodium deoxycholate, supplemented with protease and phosphatase inhibitors (1 mM Phenylmethanesulfonyl Fluoride (PMSF), […], […] Tosyllysine Chloromethyl Ketone (TLCK), […] Tosyl phenylalanyl chloromethyl ketone (TPCK), […] aprotinin, 1 mM sodium fluoride (NaF), 5 mM sodium pyrophosphate (NaPPi) and 10 mM sodium orthovanadate (Na3VO4).
Protein lysates were quantified and separated on SDS-PAGE gel, and immunoblotting was carried out.

increase in caspase 3/7 activity (caspase 3/7): five-fold
IC50 (Huh7 cells [2]): 30 µg/mL (≈ 31.9 µM)
SMILES: O=C(OC[C@H]1O[C@@H](OC(=O)c2cc(O)c(O)c(O)c2)[C@H](OC(=O)c2cc(O)c(O)c(O)c2)[C@@H](OC(=O)c2cc(O)c(O)c(O)c2)[C@@H]1OC(=O)c1cc(O)c(O)c(O)c1)c1cc(O)c(O)c(O)c1 [PGG, 1,2,3,4,6-penta-O-galloyl-β-D-glucopyranoside]
apoptosis (Annexin V staining) (Huh7 cells [1]): significantly induce apoptosis
level of cleaved caspase 3 (immunoblot) (Huh7 cells [1]): increased the level of cleaved caspase 3 in a dose-dependent manner
expression of c-Myc in the tumor xenograft mice (c-Myc): lowers the expression of c-Myc
cytotoxicity with ectopically overexpressed c-Myc ([3]; 0.1 mg/mL, FIG. 41): there is still cytotoxicity
cytotoxicity when GNMT is knocked out (shGNMT-1, shGNMT-2 vs shLacZ) ([3]; FIG. 40): no obvious improvement for the cytotoxicity caused by PGG
cell viability of Huh7-shMyc cells compared with Huh7-shLacZ cells ([3]; FIG. 44): only slightly decrease cell viability
c-Myc protein expression (c-Myc protein): inhibits c-Myc protein expression
